Measured values: patent publication US7138361B2, “Herbicidal heterocycles” (E. I. du Pont de Nemours and Company, priority 2000, dated 2006)

How the values were obtained:
Assay type in all cases: in vivo
Nightshade = test: Test C preemergence
Description: (§1) Seeds of plant species selected from bermudagrass (Cynodon dactylon), Surinam grass (Brachiaria decumbens), cocklebur (Xanthium strumarium), corn (Zea mays), crabgrass (Digitaria sanguinalis), woolly cupgrass (Eriochloa villosa), giant foxtail (Setaria faberii), goosegrass (Eleusine indica), johnsongrass (Sorghum halepense), kochia (Kochia scoparia), lambsquarters (Chenopodium album), morningglory (Ipomoea hederacea), yellow nutsedge (Cyperus esculentus), pigweed (Amaranthus retroflexus), common ragweed (Ambrosia elatior), soybean (Glycine max) and velvetleaf (Abutilon theophrasti) were planted and treated preemergence with test chemicals formulated in a non-phytotoxic solvent mixture which included a surfactant.
(§2) At the same time, plants selected from these crop and weed species and also winter barley (Hordeum vulgare), blackgrass (Alopecurus myosuroides), canary grass (Phalaris minor), chickweed (Stellaria media), downy brome (Bromus tectorum), green foxtail (Setaria viridis), Italian ryegrass (Lolium multiflorum), wheat (Triticum aestivum), wild oat (Avena fatua) and windgrass (Apera spica-venti) were treated with postemergence applications of some of the test chemicals formulated in the same manner. Plants ranged in height from 2 to 18 cm (1- to 4-leaf stage) for postemergence treatments. Plant species in the flooded paddy test consisted of rice (Oryza saliva), smallflower flatsedge (Cyperus difformis), duck salad (Heteranthera limosa) and barnyardgrass (Echinochloa crus-galli) grown to the 2-leaf stage for testing. Treated plants and controls were maintained in a greenhouse for 12 to 14 days, after which time all species were compared to controls and visually evaluated. Plant response ratings, summarized in Table C, are based on a scale of 0 to 100 where 0 is no effect and 100 is complete control. A dash (-) response means no test result.

Sunflower = test: Test C preemergence; conditions: scale 0 to 100, 0 no effect, 100 complete control
Description: as §1, §2

[1] = system: Surinam grass (Brachiaria decumbens); test: Test C preemergence
Description: as §1, §2

[2] = system: bermudagrass (Cynodon dactylon); test: Test C preemergence
Description: as §1, §2

[3] = system: cocklebur (Xanthium strumarium); test: Test C preemergence
Description: as §1, §2

corn (Zea mays) = test: Test C preemergence
Description: as §1, §2

[4] = system: crabgrass (Digitaria sanguinalis); test: Test C preemergence
Description: as §1, §2

[5] = system: giant foxtail (Setaria faberii); test: Test C preemergence
Description: as §1, §2

[6] = system: goosegrass (Eleusine indica); test: Test C preemergence
Description: as §1, §2

[7] = system: johnsongrass (Sorghum halepense); test: Test C preemergence
Description: as §1, §2

kochia (Kochia scoparia) = test: Test C preemergence
Description: as §1, §2

[8] = system: lambsquarters (Chenopodium album); test: Test C preemergence
Description: as §1, §2

[9] = system: morningglory (Ipomoea hederacea); test: Test C preemergence
Description: as §1, §2

[10] = system: pigweed (Amaranthus retroflexus); test: Test C preemergence
Description: as §1, §2

soybean (Glycine max) = test: Test C preemergence
Description: as §1, §2

[11] = system: velvetleaf (Abutilon theophrasti); test: Test C preemergence
Description: as §1, §2

[12] = system: woolly cupgrass (Eriochloa villosa); test: Test C preemergence
Description: as §1, §2

[13] = system: yellow nutsedge (Cyperus esculentus); test: Test C preemergence
Description: as §1, §2

[14] = system: barnyardgrass (Echinochloa crus-galli); test: Test C flooded paddy test; conditions: for Barnyardgrass plant response rating: Flooded Paddy, scale 0 to 100, 0 no effect, 100 complete control; for Plant response rating, Barnyardgrass: flooded paddy test, scale 0 to 100 (0 no effect, 100 complete control)
Procedure, shortened: (§3)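 Ratings come from visual comparison with control plants after 12 to 14 days in the greenhouse. Each species was at the 2-leaf stage when the flooded paddy was treated. Scores run from 0, meaning no effect, to 100, meaning complete control.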

[15] = system: duck salad (Heteranthera limosa); test: Test C flooded paddy test; conditions: for Ducksalad plant response rating: Flooded Paddy, scale 0 to 100, 0 no effect, 100 complete control; for Plant response rating, Ducksalad: flooded paddy test, scale 0 to 100 (0 no effect, 100 complete control)
Procedure, shortened: as §3

[16] = system: smallflower flatsedge (Cyperus difformis); test: Test C flooded paddy test; conditions: for Flatsedge plant response rating: Flooded Paddy, scale 0 to 100, 0 no effect, 100 complete control; for Plant response rating, Flatsedge: flooded paddy test, scale 0 to 100 (0 no effect, 100 complete control)
Procedure, shortened: as §3

[17] = Rate 125 g/ha, scale 0 to 100, 0 no effect, 100 complete control
[18] = Rate 62 g/ha, scale 0 to 100, 0 no effect, 100 complete control
[19] = preemergence, Rate 31 g/ha, scale 0 to 100
[20] = preemergence, Rate 125 g/ha, scale 0 to 100, 0 no effect, 100 complete control
[21] = preemergence, Rate 62 g/ha, scale 0 to 100
[22] = preemergence, Rate 250 g/ha, scale 0 to 100, 0 no effect, 100 complete control

CCC(CC)c1ccn(C2SCN(c3cccc(C(F)(F)F)c3)C2=O)n1 (stereo not shown) [Compound 21]
90: Plant response rating, Nightshade (Nightshade; Rate 62 g/ha; scale 0 to 100, 0 no effect, 100 complete control) | Plant response rating, Crabgrass [4, 18] | Plant response rating, Crabgrass [4, 19] | Plant response rating, Foxtail, Giant [5, 20] | Plant response rating, Johnsongrass [7, 20] | Plant response rating, Kochia (kochia (Kochia scoparia); [18]) | Plant response rating, Kochia (kochia (Kochia scoparia); [19]) | Plant response rating, Kochia (kochia (Kochia scoparia); [20]) | Plant response rating, Lambsquarters [8, 19] | Ducksalad plant response rating ([15]; Rate 250 g/ha) | Plant response rating, Ducksalad ([15]; Rate 125 g/ha) | Flatsedge plant response rating ([16]; Rate 250 g/ha) | Plant response rating, Flatsedge ([16]; Rate 125 g/ha)
20: Plant response rating, Corn (corn (Zea mays); [18]) | Plant response rating, Corn (corn (Zea mays); [19]) | Plant response rating, Corn (corn (Zea mays); [20]) | Plant response rating, Morningglory [9, 18] | Plant response rating, Morningglory [9, 20] | Plant response rating, Nutsedge [13, 19]
80: Plant response rating, Nightshade (Nightshade; Rate 31 g/ha, scale 0 to 100) | Plant response rating, Foxtail, Giant [5, 18] | Plant response rating, Goosegrass [6, 18] | Plant response rating, Goosegrass [6, 19] | Plant response rating, Pigweed [10, 18] | Plant response rating, Soybean (soybean (Glycine max); [20]) | Plant response rating, Cupgrass, Woolly [12, 18] | Plant response rating, Cupgrass, Woolly [12, 20] | Plant response rating, Ducksalad ([15]; Rate 62 g/ha) | Plant response rating, Flatsedge ([16]; Rate 62 g/ha)
40: Plant response rating, Soybean (soybean (Glycine max); [18]) | Plant response rating, Cupgrass, Woolly [12, 19] | Plant response rating, Barnyardgrass ([14]; Rate 62 g/ha)
30: Plant response rating, Surinam grass [1, 20] | Plant response rating, Johnsongrass [7, 19] | Plant response rating, Pigweed [10, 19] | Plant response rating, Soybean (soybean (Glycine max); [19])
100: Plant response rating, Nightshade (Nightshade; [17]) | Plant response rating, Bermudagrass [2, 18] | Plant response rating, Bermudagrass [2, 20] | Plant response rating, Crabgrass [4, 20] | Plant response rating, Goosegrass [6, 20] | Plant response rating, Lambsquarters [8, 18] | Plant response rating, Lambsquarters [8, 20] | Plant response rating, Pigweed [10, 20] | Barnyardgrass plant response rating ([14]; Rate 500 g/ha) | Ducksalad plant response rating ([15]; Rate 500 g/ha) | Flatsedge plant response rating ([16]; Rate 500 g/ha)
50: Plant response rating, Nutsedge [13, 18] | Barnyardgrass plant response rating ([14]; Rate 250 g/ha) | Plant response rating, Barnyardgrass ([14]; Rate 125 g/ha)
0: Plant response rating, Surinam grass [1, 18] | Plant response rating, Surinam grass [1, 19] | Plant response rating, Cocklebur [3, 18] | Plant response rating, Cocklebur [3, 19] | Plant response rating, Cocklebur [3, 20] | Plant response rating, Foxtail, Giant [5, 19] | Plant response rating, Morningglory [9, 19] | Plant response rating, Velvetleaf [11, 18] | Plant response rating, Velvetleaf [11, 19] | Plant response rating, Velvetleaf [11, 20]
70: Plant response rating, Johnsongrass [7, 18]
60: Plant response rating, Sunflower (Sunflower; Rate 62 g/ha) | Plant response rating, Bermudagrass [2, 19] | Plant response rating, Nutsedge [13, 20]

CC(C)OC(=O)c1cccc(N2CCC(n3ccc(C(C)(C)C)n3)C2=O)c1 (stereo not shown) [Compound 124]
10: Plant response rating, Surinam grass [1, 22]
20: Plant response rating, Nightshade (Nightshade; Rate 125 g/ha; scale 0 to 100, 0 no effect, 100 complete control) | Plant response rating, Foxtail, Giant [5, 17] | Plant response rating, Johnsongrass [7, 17] | Plant response rating, Ducksalad ([15]; Rate 125 g/ha) | Plant response rating, Flatsedge ([16]; Rate 125 g/ha)
50: Plant response rating, Lambsquarters [8, 21] | Plant response rating, Pigweed [10, 22] | Plant response rating, Cupgrass, Woolly [12, 17]
45: Plant response rating, Lambsquarters [8, 19]
100: Plant response rating, Nightshade (Nightshade; Rate 250 g/ha, scale 0 to 100, 0 no effect, 100 complete control) | Plant response rating, Bermudagrass [2, 22] | Plant response rating, Crabgrass [4, 17] | Plant response rating, Crabgrass [4, 22] | Plant response rating, Lambsquarters [8, 17] | Plant response rating, Lambsquarters [8, 22]
90: Plant response rating, Crabgrass [4, 21] | Plant response rating, Kochia (kochia (Kochia scoparia); [22]) | Flatsedge plant response rating ([16]; Rate 500 g/ha)
30: Plant response rating, Johnsongrass [7, 22] | Plant response rating, Cupgrass, Woolly [12, 21] | Flatsedge plant response rating ([16]; Rate 250 g/ha)
40: Plant response rating, Goosegrass [6, 17] | Plant response rating, Kochia (kochia (Kochia scoparia); [21]) | Ducksalad plant response rating ([15]; Rate 250 g/ha)
80: Plant response rating, Bermudagrass [2, 17] | Plant response rating, Crabgrass [4, 19] | Ducksalad plant response rating ([15]; Rate 500 g/ha)
85: Plant response rating, Foxtail, Giant [5, 22]
15: Plant response rating, Johnsongrass [7, 21]
60: Plant response rating, Bermudagrass [2, 21] | Plant response rating, Goosegrass [6, 22] | Plant response rating, Kochia (kochia (Kochia scoparia); [17]) | Plant response rating, Cupgrass, Woolly [12, 22]
0: Plant response rating, Nightshade (Nightshade; Rate 31 g/ha, scale 0 to 100) | Plant response rating, Nightshade (Nightshade; Rate 62 g/ha, scale 0 to 100) | Plant response rating, Sunflower (Sunflower; Rate 125 g/ha) | Plant response rating, Surinam grass [1, 17] | Plant response rating, Surinam grass [1, 19] | Plant response rating, Surinam grass [1, 21] | Plant response rating, Bermudagrass [2, 19] | Plant response rating, Cocklebur [3, 17] | Plant response rating, Cocklebur [3, 19] | Plant response rating, Cocklebur [3, 21] | Plant response rating, Cocklebur [3, 22] | Plant response rating, Corn (corn (Zea mays); [17]) | Plant response rating, Corn (corn (Zea mays); [19]) | Plant response rating, Corn (corn (Zea mays); [21]) | Plant response rating, Corn (corn (Zea mays); [22]) | Plant response rating, Foxtail, Giant [5, 19] | Plant response rating, Foxtail, Giant [5, 21] | Plant response rating, Goosegrass [6, 19] | Plant response rating, Goosegrass [6, 21] | Plant response rating, Johnsongrass [7, 19] | Plant response rating, Kochia (kochia (Kochia scoparia); [19]) | Plant response rating, Morningglory [9, 17] | Plant response rating, Morningglory [9, 19] | Plant response rating, Morningglory [9, 21] | Plant response rating, Morningglory [9, 22] | Plant response rating, Pigweed [10, 17] | Plant response rating, Pigweed [10, 19] | Plant response rating, Pigweed [10, 21] | Plant response rating, Soybean (soybean (Glycine max); [17]) | Plant response rating, Soybean (soybean (Glycine max); [19]) | Plant response rating, Soybean (soybean (Glycine max); [21]) | Plant response rating, Soybean (soybean (Glycine max); [22]) | Plant response rating, Velvetleaf [11, 17] | Plant response rating, Velvetleaf [11, 19] | Plant response rating, Velvetleaf [11, 21] | Plant response rating, Velvetleaf [11, 22] | Plant response rating, Cupgrass, Woolly [12, 19] | Plant response rating, Nutsedge [13, 17] | Plant response rating, Nutsedge [13, 19] | Plant response rating, Nutsedge [13, 21] | Plant response rating, Nutsedge [13, 22] | Barnyardgrass plant response rating ([14]; Rate 250 g/ha) | Barnyardgrass plant response rating ([14]; Rate 500 g/ha) | Plant response rating, Barnyardgrass ([14]; Rate 62 g/ha) | Plant response rating, Barnyardgrass ([14]; Rate 125 g/ha) | Plant response rating, Ducksalad ([15]; Rate 62 g/ha) | Plant response rating, Flatsedge ([16]; Rate 62 g/ha)
